In US20080103205A1, “Pesticidal compositions and methods of use” (priority 2006, published 2008):
Where two headings read alike, the source gives them in different places.

Key:
Type in all cases: in vivo
[1] = system: Meloidogyne incognita; assay: Toxicity test, J2 juveniles of Meloidogyne incognita, 96 well micro plate; details: Meloidogyne incognita
Protocol: (§1) Methodology: Toxicity tests were conducted using J2 juveniles of Meloidogyne incognita adult Caenorhabditis elegans collected from nematode-infested tomato plant roots and culture Petri plates, respectively. Test concentrations of 50, 100, 200, 300, or 400 ppm were prepared in 0.2% dimethylsulfoxide (DMSO) in tap water. Aliquots (300 microliters (ul)) were applied to a 96 well micro plate and a 20 ul aqueous solution containing nematodes was added. The number of nematodes in 20 ul ranged from 17 to 30. Micro plates were sealed with Parafilm™ and incubated at room temperature. Similar tests conducted with 0.2% DMSO in tap water served as controls. Nematode mortality was checked at 24, 48, 72, 120, and 168 hr after incubation. Nematodes that were motionless for 30 sec when observed under a stereomicroscope were considered paralyzed and included in mortality counts. Each concentration was replicated five times and mean percent mortality was calculated after correcting for control mortality using Abbott's formula.
(§2) Data Analysis: Mortality data were analyzed using PROC PROBIT (SAS) program and LC50 values were estimated.

[2] = system: Caenorhabditis elegans; assay: Toxicity test, adult Caenorhabditis elegans, 96 well micro plate; details: Caenorhabditis elegans
Protocol: as §1, §2

[3] = system: Drosophila melanogaster; assay: Toxicity against adult Drosophila melanogaster, sugar solution feeding
Protocol: Toxicity tests were conducted using mixed sex adults of D. melanogaster maintained on artificial diet in the department of entomology, Virginia Tech. Test concentrations of 6.25, 12.5, 25, 50 or 100 ppm were prepared in 0.2% dimethyl sulfoxide (DMSO) for DIDS, 9-AC, NPPB, and IAA-94. The above final concentrations were obtained after mixing them in 10 ml of 10% sugar solution. Similar preparations with 0.2% DMSO alone served as controls. One end of a cotton wick was dipped in 0.5 ml of sugar solution and placed on the glass vial containing 10 adult flies of mixed sex. Each concentration of test chemical had 5 replications. Mortality counts of flies were taken 24, 48, and 72 hrs after treatment. Insects without movement upon probing were considered dead. LC50 values and confidence intervals for each chemical were estimated using POLO PLUS software program. The data provided in Tables 3-A and 3-B below confirm that AT blockers are toxic to insects in acute exposures.

[4] = 24 h, read-out: Corrected Mortality (%)
[5] = 48 h, read-out: Corrected Mortality (%)
[6] = 72 h, read-out: Corrected Mortality (%)
[7] = 120 h, read-out: Corrected Mortality (%)
[8] = 168 h, read-out: Corrected Mortality (%)

## CC1(C2CCCC2)Cc2cc(OCC(=O)O)c(Cl)c(Cl)c2C1=O (single isomer, unassigned; (+)) [IAA-94, (+)(2-cyclopentyl-6,7-dichloro-2-methyl-1-oxo-5-indanyloxy) acetic acid]
[1]; 24 h
  mortality at 50 ppm: 8%
  mortality at 100 ppm: 10%
  mortality at 200 ppm: 14%
  mortality at 300 ppm: 20%
  mortality at 400 ppm: 24%
[1]; [4]
  mortality at 50 ppm: 5%
  mortality at 100 ppm: 7%
  mortality at 200 ppm: 11%
  mortality at 300 ppm: 19%
  mortality at 400 ppm: 22%
[1]; 48 h
  mortality at 50 ppm: 17%
  mortality at 100 ppm: 22%
  mortality at 200 ppm: 34%
  mortality at 300 ppm: 38%
  mortality at 400 ppm: 43%
[1]; [5]
  mortality at 50 ppm: 12%
  mortality at 100 ppm: 17%
  mortality at 200 ppm: 30%
  mortality at 300 ppm: 34%
  mortality at 400 ppm: 39%
[1]; 72 h
  mortality at 50 ppm: 30%
  mortality at 100 ppm: 38%
  mortality at 200 ppm: 61%
  mortality at 300 ppm: 65%
  mortality at 400 ppm: 70%
[1]; [6]
  mortality at 50 ppm: 22%
  mortality at 100 ppm: 31%
  mortality at 200 ppm: 57%
  mortality at 300 ppm: 61%
  mortality at 400 ppm: 67%
[1]; 120 h
  mortality at 50 ppm: 51%
  mortality at 100 ppm: 61%
  mortality at 200 ppm: 83%
  mortality at 300 ppm: 90%
  mortality at 400 ppm: 97%
[1]; [7]
  mortality at 50 ppm: 45%
  mortality at 100 ppm: 56%
  mortality at 200 ppm: 81%
  mortality at 300 ppm: 89%
  mortality at 400 ppm: 97%
[1]; 168 h
  mortality at 50 ppm: 74%
  mortality at 100 ppm: 85%
  mortality at 200 ppm: 99%
  mortality at 300 ppm: 100%
  mortality at 400 ppm: 100%
[1]; [8]
  mortality at 50 ppm: 71%
  mortality at 100 ppm: 83%
  mortality at 200 ppm: 99%
  mortality at 300 ppm: 100%
  mortality at 400 ppm: 100%
[2]; 24 h
  mortality at 50 ppm: 8%
  mortality at 100 ppm: 14%
  mortality at 200 ppm: 17%
  mortality at 300 ppm: 21%
  mortality at 400 ppm: 24%
[2]; [4]
  mortality at 50 ppm: 5%
  mortality at 100 ppm: 11%
  mortality at 200 ppm: 14%
  mortality at 300 ppm: 19%
  mortality at 400 ppm: 22%
[2]; 48 h
  mortality at 50 ppm: 17%
  mortality at 100 ppm: 29%
  mortality at 200 ppm: 38%
  mortality at 300 ppm: 43%
  mortality at 400 ppm: 48%
[2]; [5]
  mortality at 50 ppm: 13%
  mortality at 100 ppm: 25%
  mortality at 200 ppm: 35%
  mortality at 300 ppm: 40%
  mortality at 400 ppm: 45%
[2]; 72 h
  mortality at 50 ppm: 35%
  mortality at 100 ppm: 44%
  mortality at 200 ppm: 64%
  mortality at 300 ppm: 71%
  mortality at 400 ppm: 77%
[2]; [6]
  mortality at 50 ppm: 31%
  mortality at 100 ppm: 40%
  mortality at 200 ppm: 62%
  mortality at 300 ppm: 69%
  mortality at 400 ppm: 76%
[2]; 120 h
  mortality at 50 ppm: 58%
  mortality at 100 ppm: 70%
  mortality at 200 ppm: 90%
  mortality at 300 ppm: 94%
  mortality at 400 ppm: 98%
[2]; [7]
  mortality at 50 ppm: 53%
  mortality at 100 ppm: 67%
  mortality at 200 ppm: 89%
  mortality at 300 ppm: 93%
  mortality at 400 ppm: 98%
[2]; 168 h
  mortality at 50 ppm: 81%
  mortality at 100 ppm: 94%
  mortality at 200 ppm: 99%
  mortality at 300 ppm: 100%
  mortality at 400 ppm: 100%
[2]; [8]
  mortality at 50 ppm: 78%
  mortality at 100 ppm: 93%
  mortality at 200 ppm: 99%
  mortality at 300 ppm: 100%
  mortality at 400 ppm: 100%
[3]; 48 hr
  LC50 (ppm): 170.05 ppm
[3]; 72 hr
  LC50 (ppm): 115.67 ppm
